Assay results published in DBAASP.
≈ marks a conversion by molar mass, not a printed value. Where “and” joins values, the source holds several entries; their conditions need not be identical. Equal entries are not always repeated. One block for each compound: values may come before it.

Tests used:
Test in all cases: ≥ marks a high value that may be exact or a test limit, other limits are often not marked, values filed in µg/mL are converted to µM
[1] = test system: Staphylococcus aureus ATCC 25923
Bacillus subtilis = test system: Bacillus subtilis
[2] = test system: Klebsiella pneumoniae ATCC 13883
[3] = test system: Enterococcus faecalis ATCC 29212
Escherichia coli = test system: Escherichia coli
[4] = test system: Streptococcus pyogenes ATCC 19615
[5] = test system: Pseudomonas aeruginosa ATCC 27853
[6] = test system: Salmonella enterica subsp. enterica serovar Typhimurium ATCC 14028
[7] = test system: Candida albicans ATCC 2002
[8] = test system: Pseudomonas aeruginosa CMCCB 10104
[9] = test system: Staphylococcus aureus ATCC 2592
[10] = test system: Escherichia coli ATCC 25922
[11] = test system: Bacillus subtilis ATCC 6633
Shigella dysenteriae = test system: Shigella dysenteriae
[12] = test system: Staphylococcus aureus NCTC 8325
[13] = test system: Staphylococcus epidermidis RP62A
Bacillus subtilis 168 = test system: Bacillus subtilis 168
Staphylococcus aureus = test system: Staphylococcus aureus
[14] = test system: Candida albicans F7-39/IDE99
Pseudomonas aeruginosa = test system: Pseudomonas aeruginosa
Escherichia coli B = test system: Escherichia coli B
Escherichia coli K-12 = test system: Escherichia coli K-12
[15] = test system: Staphylococcus aureus USA 300
[16] = test system: Staphylococcus aureus ATCC 6538P
Escherichia coli JM109 = test system: Escherichia coli JM109

SMILES: CC[C@H](C)[C@H](NC(=O)[C@@H]1CCCN1C(=O)[C@H](Cc1ccccc1)NC(=O)[C@@H](N)Cc1ccccc1)C(=O)N[C@H](C(=O)NCC(=O)N[C@@H](CCCCN)C(=O)N[C@@H](CCCN=C(N)N)C(=O)N[C@@H](CC(C)C)C(=O)N[C@@H](Cc1ccc(O)cc1)C(=O)NCC(=O)N[C@@H](CC(C)C)C(=O)N[C@@H](CC(C)C)C(N)=O)C(C)C [FFPIVGKRLYGLL]
MIC [11]: 6.16 µM (≈ 9.37 µg/mL)
MIC [7]: 24.6 µM (≈ 37.5 µg/mL)
MIC [9]: 3.09 µM (≈ 4.7 µg/mL)
MIC [10]: 46 µM (≈ 70 µg/mL)
MIC (Shigella dysenteriae): 12.3 µM (≈ 18.7 µg/mL)

SMILES: CC[C@H](C)[C@H](NC(=O)[C@@H](NC(=O)[C@@H]1CCCN1C(=O)[C@H](CC(C)C)NC(=O)[C@@H](N)Cc1ccccc1)[C@@H](C)CC)C(=O)NCC(=O)N[C@@H](CCC(N)=O)C(=O)N[C@@H](CC(C)C)C(=O)N[C@@H](CC(C)C)C(=O)N[C@@H](CO)C(=O)NCC(=O)N[C@@H](CC(C)C)C(=O)N[C@@H](CC(C)C)C(N)=O [FLPIIGQLLSGLL]
MIC [12]: ≥ 80 µM
MIC [3]: > 80 µM
MIC [13]: ≥ 80 µM

SMILES: CC[C@H](C)[C@H](NC(=O)[C@H](C)NC(=O)CNC(=O)[C@@H](NC(=O)[C@@H](NC(=O)[C@@H](NC(=O)CNC(=O)[C@@H](NC(=O)[C@@H](NC(=O)[C@@H](NC(=O)[C@H](C)NC(=O)[C@H](Cc1ccccc1)NC(=O)[C@H](CC(C)C)NC(=O)[C@H](CCCN=C(N)N)NC(=O)[C@H](CCCN=C(N)N)NC(=O)[C@H](CC(C)C)NC(=O)CNC(=O)CNC(=O)[C@@H](NC(=O)[C@@H](N)Cc1ccccc1)[C@@H](C)CC)[C@@H](C)O)C(C)C)C(C)C)[C@@H](C)O)C(C)C)C(C)C)C(=O)N[C@@H](CC(N)=O)C(=O)N[C@@H](CCCCN)C(=O)N[C@@H](CC(C)C)C(=O)NCC(=O)NCC(=O)NCC(=O)O [FIGGLRRLFATVVGTVVGAINKLGGG]
MIC (Bacillus subtilis): ≥ 38.9 µM
MIC [7]: 2.45 µM (≈ 6.3 µg/mL)
MIC [9]: 4.86 µM (≈ 12.5 µg/mL)
MIC [10]: 4.86 µM (≈ 12.5 µg/mL)
MIC [5]: 8 µM (≈ 20.6 µg/mL)

SMILES: CSCC[C@H](NC(=O)[C@H](CCCCN)NC(=O)[C@H](Cc1ccccc1)NC(=O)CN)C(=O)N[C@@H](C)C(=O)N[C@@H](CC(C)C)C(=O)N[C@@H](CCCCN)C(=O)N[C@@H](CC(C)C)C(=O)N[C@@H](CC(C)C)C(=O)N[C@@H](CCCCN)C(=O)N[C@@H](CCCCN)C(=O)N[C@H](C(=O)N[C@@H](CC(C)C)C(N)=O)C(C)C [GFKMALKLLKKVL]
MIC (Bacillus subtilis 168): 1.3 µM (≈ 1.93 µg/mL)
MIC (Staphylococcus aureus): 5 µM (≈ 7.44 µg/mL)
MIC [14]: 4.3 µM (≈ 6.4 µg/mL)
MIC (Pseudomonas aeruginosa): 11.3 µM (≈ 16.8 µg/mL)
MIC (Escherichia coli B): 2.3 µM (≈ 3.42 µg/mL)

SMILES: CC[C@H](C)[C@H](NC(=O)[C@H](C)NC(=O)[C@H](CC(C)C)NC(=O)[C@H](CC(C)C)NC(=O)[C@H](Cc1c[nH]c2ccccc12)NC(=O)[C@H](C)N)C(=O)N[C@@H](CCCN=C(N)N)C(=O)N[C@@H](CCCN=C(N)N)C(=O)N[C@@H](CCCN=C(N)N)C(N)=O [AWLLAIRRR]
MIC [16]: 1.73 µM (≈ 2 µg/mL)
MIC (Staphylococcus aureus): 17.3 µM (≈ 20 µg/mL)
MIC (Pseudomonas aeruginosa): 3.46 µM (≈ 4 µg/mL)
MIC (Escherichia coli JM109): 2.6 µM (≈ 3 µg/mL)

Other lines, results leading:

MIC [1]: > 100 µM
MIC (Bacillus subtilis): ≥ 100 µM
MIC [2]: ≥ 100 µM
MIC [3]: > 100 µM
MIC (Escherichia coli): > 100 µM
MIC [4]: ≥ 100 µM
MIC [5]: > 100 µM
MIC [6]: > 100 µM
SMILES: CC(C)C[C@H](NC(=O)[C@H](Cc1c[nH]c2ccccc12)NC(=O)[C@H](CCC(N)=O)NC(=O)[C@@H](N)C(C)C)C(=O)N[C@@H](CCC(=O)O)C(=O)N[C@@H](CCC(N)=O)C(=O)N[C@@H](CCC(N)=O)C(=O)N[C@H](C(=O)N[C@@H](C)C(=O)N[C@@H](CCCCN)C(=O)N[C@@H](CCCN=C(N)N)C(=O)N[C@@H](CCCN=C(N)N)C(=O)N[C@H](C(=O)N[C@@H](CCCCN)C(=O)N[C@@H](CCCN=C(N)N)C(=O)O)[C@@H](C)O)C(C)C [VQWLEQQVAKRRTKR]

MIC [7]: 2.33 µM (≈ 4.5 µg/mL)
MIC [8]: 4.65 µM (≈ 9 µg/mL)
MIC [9]: 2.33 µM (≈ 4.5 µg/mL)
MIC [10]: 4.65 µM (≈ 9 µg/mL)
SMILES: CC[C@H](C)[C@H](N)C(=O)N[C@@H](CC(C)C)C(=O)NCC(=O)N1CCC[C@H]1C(=O)N[C@H](C(=O)N[C@H](C(=O)N[C@@H](CO)C(=O)N[C@H](C(=O)N[C@H](C(=O)NCC(=O)NCC(=O)N[C@H](C(=O)N[C@@H](CC(C)C)C(=O)NCC(=O)NCC(=O)N[C@@H](CC(C)C)C(=O)N[C@@H](CC(C)C)C(=O)N[C@@H](CCCCN)C(=O)N[C@@H](CC(N)=O)C(=O)N[C@@H](CC(C)C)C(N)=O)C(C)C)[C@@H](C)CC)[C@@H](C)O)[C@@H](C)CC)C(C)C [ILGPVISTIGGVLGGLLKNL]

MIC (Bacillus subtilis 168): 1.2 µM (≈ 1.74 µg/mL)
MIC (Staphylococcus aureus): 28.3 µM (≈ 41 µg/mL)
MIC [14]: 5.3 µM (≈ 7.67 µg/mL)
MIC (Pseudomonas aeruginosa): 30 µM (≈ 43.4 µg/mL)
MIC (Escherichia coli B): 2.7 µM (≈ 3.91 µg/mL)
SMILES: CC[C@H](C)[C@H](NC(=O)[C@H](CC(C)C)NC(=O)[C@H](Cc1cnc[nH]1)NC(=O)CNC(=O)[C@H](CC(C)C)NC(=O)[C@@H](NC(=O)[C@H](CCCCN)NC(=O)[C@H](CCCCN)NC(=O)[C@H](Cc1c[nH]c2ccccc12)NC(=O)[C@H](CCCCN)NC(=O)CN)[C@@H](C)CC)C(=O)N[C@@H](CCCN=C(N)N)C(N)=O [GKWKKILGHLIR]

MIC (Bacillus subtilis 168): 1 µM (≈ 1.45 µg/mL)
MIC (Staphylococcus aureus): 8.1 µM (≈ 11.8 µg/mL)
MIC [14]: 6.6 µM (≈ 9.59 µg/mL)
MIC (Pseudomonas aeruginosa): 42.1 µM (≈ 61.2 µg/mL)
MIC (Escherichia coli B): 2.5 µM (≈ 3.63 µg/mL)
SMILES: CC[C@H](C)[C@H](NC(=O)[C@H](Cc1cnc[nH]1)NC(=O)[C@H](CCCCN)NC(=O)[C@H](CC(C)C)NC(=O)[C@H](CC(C)C)NC(=O)[C@H](CO)NC(=O)[C@H](CCSC)NC(=O)[C@H](Cc1c[nH]c2ccccc12)NC(=O)[C@H](CCCCN)NC(=O)CN)C(=O)N[C@@H](CC(C)C)C(=O)N[C@@H](CCCCN)C(N)=O [GKWMSLLKHILK]

MIC [1]: 100 µM (≈ 222 µg/mL)
MIC (Bacillus subtilis): ≥ 100 µM
MIC [2]: ≥ 200 µM
MIC [3]: > 200 µM
MIC (Escherichia coli): 100 µM (≈ 222 µg/mL)
MIC [4]: ≥ 200 µM
MIC [5]: 100 µM (≈ 222 µg/mL)
MIC [6]: > 200 µM
SMILES: CC[C@H](C)[C@H](NC(=O)[C@@H]1CCCN1C(=O)[C@H](CC(C)C)NC(=O)[C@@H](N)CC(C)C)C(=O)N[C@H](C(=O)NCC(=O)N[C@@H](CC(N)=O)C(=O)N[C@@H](CC(C)C)C(=O)N[C@@H](CC(C)C)C(=O)N[C@@H](CCCCN)C(=O)N[C@@H](CO)C(=O)N[C@@H](CC(C)C)C(=O)N[C@@H](CC(C)C)C(=O)NCC(=O)N[C@@H](C)C(=O)N[C@@H](CCCCN)C(=O)N[C@@H](CCCN=C(N)N)C(=O)N[C@@H](CCCCN)C(=O)N[C@@H](CCCN=C(N)N)C(=O)N[C@@H](C)C(=O)NCC(N)=O)C(C)C [LLPIVGNLLKSLLGAKRKRAG]

MIC (Bacillus subtilis): ≥ 48.6 µM
MIC [7]: 4.56 µM (≈ 9.38 µg/mL)
MIC [9]: ≥ 48.6 µM
MIC [10]: 9.12 µM (≈ 18.7 µg/mL)
SMILES: CC(C)C[C@H](NC(=O)[C@H](CCCCN)NC(=O)[C@H](CCCN=C(N)N)NC(=O)[C@H](Cc1c[nH]c2ccccc12)NC(=O)[C@H](Cc1c[nH]c2ccccc12)NC(=O)[C@H](CCCCN)NC(=O)[C@H](CCCCN)NC(=O)[C@H](Cc1c[nH]c2ccccc12)NC(=O)[C@H](CCCN=C(N)N)NC(=O)[C@H](CCCCN)NC(=O)[C@@H](N)C(C)C)C(=O)N[C@@H](CCCCN)C(=O)N[C@@H](CCCCN)C(=O)N[C@@H](CO)C(=O)N[C@H](C(N)=O)C(C)C [VKRWKKWWRKLKKSV]

MIC (Escherichia coli K-12): 15 µM (≈ 30.2 µg/mL)
MIC [15]: 7.5 µM and 3.1 µM
SMILES: CC[C@H](C)[C@H](NC(=O)[C@H](CCCN=C(N)N)NC(=O)[C@H](CCC(N)=O)NC(=O)[C@@H](NC(=O)[C@@H](NC(=O)[C@H](CCCN=C(N)N)NC(=O)[C@H](CCCCN)NC(=O)[C@H](Cc1ccccc1)NC(=O)CN)[C@@H](C)CC)C(C)C)C(=O)N[C@@H](CCCCN)C(=O)N[C@@H](CC(=O)O)C(=O)N[C@@H](Cc1ccccc1)C(=O)N[C@@H](CC(C)C)C(=O)N[C@@H](C)C(=O)N[C@@H](CC(N)=O)C(=O)N[C@@H](CC(C)C)C(=O)N[C@H](C(N)=O)C(C)C [GFKRIVQRIKDFLANLV]
